Test results published in paper PMC10813753 (Biology, 2024).
pIC50: −log10 of the molar value. Values joined by “and” are separate entries in the source; they are usually repeats but may differ in a detail not shown here. Identical values can stand only once.

How the values were obtained:
[1] = test system: G4 Tel22 telomeric quadruplex DNA; assay: Equilibrium dialysis (non-competition and competition), Tel22; format: binding, human; conditions: for Kapp (Tel22): 10 mM potassium phosphate, 100 mM KCl, pH 7.2
Procedure: (§1) Equilibrium dialysis experiments were conducted with unlabeled quadruplex DNA and/or with dsDNA sequences as previously reported. G4 sequence Tel22 is 5′-A(GGGTTA)3GGG-3′, and ds17 is 5′-GGG TTA CTA CGA ACT GG-3′/5′-CCA GTT CGT AGT AAC CC-3′. The buffering system employed contained 10 mM potassium phosphate buffer and 100 mM of KCl (pH = 7.2). DNA solution concentrations were determined at 90 °C through UV-visible spectrophotometry using the λmax values and extinction coefficients provided by IDT®. Extinction coefficients of TSC ligand 1 were calculated in water and in buffer in the absence and in the presence of 1% (w/v) triton X-100. Competition and non-competition dialysis experiments were carried out using the protocol described by Chaires, with minor modifications. Dialysis bags (Biotech Regenerated Cellulose (RC) membrane, part number 133192, Spectrum Laboratories, Inc., Fisher, Madrid, Spain) with a 0.2 mL volume were used, with G4 Tel22 or duplex ds17 DNA at a concentration of 75 μM, in monomeric units. The dialysis bags were placed in a beaker containing 200 mL of a solution of compound 1 (2 μM) in buffer. The beaker was sealed with Parafilm, and the solution was allowed to equilibrate at room temperature (22 °C) for 24 h with continuous stirring. Then, the contents of the dialysis bags were transferred into microcentrifuge tubes, and triton X-100 was added (1% (w/v) final concentration). After 2 h equilibration at room temperature, the total concentration of the ligand (Ct) was determined using UV-visible spectroscopy. The concentration of free compound 1 (Cf) was also determined spectrophotometrically from the dialysate solution. The concentration of the DNA-bound compound (Cb) was then calculated using the equation Cb = Ct − Cf, and Kapp was determined.
Assays were performed at room temperature with ~2 μM solutions of 1, equilibrated with 75 μM (in monomeric units, tetrads or base pairs, respectively) of the tested DNA sequence for 24 h, in a buffer containing 100 mM KCl. Afterwards, the surfactanct triton X-100 was added to the solutions contained in the dialysis bags, and the recording of the UV-visible spectra was used to determine the concentrations of free and DNA-bound ligands for each situation: Tel22, ds17 or competition experiment Tel22-ds17. The concentration of DNA-bound ligand was determined based on at least two different experiments performed in duplicate or triplicate. […]

HeLa cells = assay: Cell cycle analysis by flow cytometry, HeLa; format: cell-based, human; conditions: ½ IC50 concentration, 72 h
Procedure: For cell cycle experiments, exponentially growing HeLa cells in DMEM were seeded in 6-well plates at a density of 2.5 × 10^5/well. […] Untreated cells were used as controls. After washing with PBS, cells were detached with 0.25% trypsin/0.2% EDTA and centrifuged at 1500 rpm for 5 min at rt. The resulting pellets were mixed with cold 70% ethanol (0.5 mL) and kept at 4 °C for 30 min. Ethanol was removed by centrifugation, and the pellets were washed with 2 mL PBS + 2% BSA and centrifuged. After discarding the supernatants, a propidium iodide solution (PI/RNAse, FxCycle^TM, Invitrogen^TM ref. F10797, 0.5 mL, Thermo Fisher, Madrid, Spain) was added, mixed thoroughly and incubated for 15 min at room temperature prior to analysis by flow cytometry. A total of 10,000 events were registered for each sample. The obtained results were analyzed with the MacsQuantify 2.13.1 program (Miltenyi Biotech, Pozuelo de Alarcón, Spain) and represented as histograms.

ds17 duplex DNA = assay: Equilibrium dialysis (non-competition and competition), ds17; format: binding; conditions: for Kapp (ds17): 10 mM potassium phosphate, 100 mM KCl, pH 7.2
Procedure: as §1, with “Then, the contents of the dialysis bags were transferred into microcentrifuge tubes, and triton X-100 was added (1% (w/v) final concentration).” left out
Assays were performed at room temperature with ~2 μM solutions of 1, equilibrated with 75 μM (in monomeric units, tetrads or base pairs, respectively) of the tested DNA sequence for 24 h, in a buffer containing 100 mM KCl. […] The concentration of DNA-bound ligand was determined based on at least two different experiments performed in duplicate or triplicate. […]

HT29 cells (colorectal) = assay: MTT viability assay HT29; format: cell-based, human; conditions: 72 h
Procedure: A panel of five tumor cell lines and two normal cell lines was used to preliminarily test the cytotoxicity of compounds 1–4, and the experiments were conducted as previously reported. All human cell lines were acquired from American Type Culture Collection (ATCC): tumor PC-3 and DU145 (prostate), HeLa (cervix), MCF7 (breast) and HT29 (colorectal) and healthy HFF-1 (fibroblast) and RWPE-1 (prostate). The cell catalogue reference and culture media used in the experiments were CRL-1435^TM, RPMI (PC-3), HTB-81™, RPMI (DU145), CCL-2^TM, DMEM (HeLa), HTB-22^TM, DMEM (MCF-7), HTB-38^TM, modified McCoy’s 5a medium, Catalogue No. 30-2007 (HT29), SCRC-1041^TM, DMEM (HFF-1) and CRL-11609^TM, Keratinocyte-SFM (RWPE-1). Culture media were purchased from Merck: RPMI-1640, DMEM + 10% FBS (Fetal Bovine Serum) + […] (penicillin/streptomycin/amphotericin B). Media and supplements for RWPE-1 were from ThermoFisher (17005075, Madrid, Spain). MCF7 cells were additionally supplemented with insulin (0.001 mg/mL in 500 mL media). Cells were kept at 37 °C (5% CO2), and culture media were renewed three times per week. When the cells reached 80–100% confluence, they were trypsinized and centrifuged, and the concentration was adjusted to each experiment. Cells were seeded at a density of ~10,000 cells/well into 24-well plates. The cells were treated with ligands 1–4 or the cytotoxic agents PhenQE8, PhenDC3 or cisplatin at different concentrations (10 nM–100 μM). Compound solutions were freshly prepared using the appropriate culture medium. Triplicate experiments were run. For MTT viability assays, after 72 h incubation, 50 μL of MTT (5 mg/mL) was added, and an additional incubation of 4 h was allowed. The medium in each well was then replaced by DMSO, and the absorbance was measured at 570 nm using an ELISA plate reader. Absorbances were normalized using negative controls (untreated cells, in triplicate, with a maximum of 0.9% DMSO content). […] IC50 values were determined using Kaleidagragh^TM (3.52) software by adjusting the data to Equation 1/(1 + 10^(m2*(log(m1) − x))); m1 = 0.000003; m2 = 1.

[2] = test system: PC-3 cells (prostate tumor); assay: MTT viability assay PC-3; format: cell-based, human; conditions: for selectivity index (SI), prostate tumor PC3 versus prostate non-tumor RWPE-1: from MTT IC50 values
Procedure: A panel of five tumor cell lines and two normal cell lines was used to preliminarily test the cytotoxicity of compounds 1–4, and the experiments were conducted as previously reported. All human cell lines were acquired from American Type Culture Collection (ATCC): tumor PC-3 and DU145 (prostate), HeLa (cervix), MCF7 (breast) and HT29 (colorectal) and healthy HFF-1 (fibroblast) and RWPE-1 (prostate). The cell catalogue reference and culture media used in the experiments were CRL-1435^TM, RPMI (PC-3), HTB-81™, RPMI (DU145), CCL-2^TM, DMEM (HeLa), HTB-22^TM, DMEM (MCF-7), HTB-38^TM, modified McCoy’s 5a medium, Catalogue No. 30-2007 (HT29), SCRC-1041^TM, DMEM (HFF-1) and CRL-11609^TM, Keratinocyte-SFM (RWPE-1). Culture media were purchased from Merck: RPMI-1640, DMEM + 10% FBS (Fetal Bovine Serum) + […] (penicillin/streptomycin/amphotericin B). Media and supplements for RWPE-1 were from ThermoFisher (17005075, Madrid, Spain). MCF7 cells were additionally supplemented with insulin (0.001 mg/mL in 500 mL media). Cells were kept at 37 °C (5% CO2), and culture media were renewed three times per week. When the cells reached 80–100% confluence, they were trypsinized and centrifuged, and the concentration was adjusted to each experiment. Cells were seeded at a density of ~10,000 cells/well into 24-well plates. The cells were treated with ligands 1–4 or the cytotoxic agents PhenQE8, PhenDC3 or cisplatin at different concentrations (10 nM–100 μM). Compound solutions were freshly prepared using the appropriate culture medium. Triplicate experiments were run. For MTT viability assays, after 72 h incubation, 50 μL of MTT (5 mg/mL) was added, and an additional incubation of 4 h was allowed. The medium in each well was then replaced by DMSO, and the absorbance was measured at 570 nm using an ELISA plate reader. Absorbances were normalized using negative controls (untreated cells, in triplicate, with a maximum of 0.9% DMSO content). Dose–response curves were obtained by plotting the percentage of viable cells versus logarithmic compound concentration. IC50 values were determined using Kaleidagragh^TM (3.52) software by adjusting the data to Equation 1/(1 + 10^(m2*(log(m1) − x))); m1 = 0.000003; m2 = 1.

[3] = competition dialysis (1 + Tel22 + ds17)
[4] = order of magnitude, equilibrium dialysis

2,2′-(1,10-Phenanthroline-2,9-diyl)-bis(methylene)-bis(hydrazine-1-carbothioamide) [compound 1]
Kapp (Tel22) [1, 3]: 1.2 ± 0.1 (M^−1) × 10^−5 | binding selectivity Kapp (Tel22)/Kapp (ds17) ([1]; competitive assay): ~24 fold | Kapp (Tel22) ([1]; non-competition dialysis (1 + Tel22), apparent association constant, order 10^5 M^−1): 1.1 ± 0.1 (M^−1) × 10^−5 | apparent association constant to telomeric quadruplex [1, 4]: ~10^5 M^−1 | change in SubG0 population (HeLa cells): notably increased the number of cells in SubG0 | Kapp (ds17) (ds17 duplex DNA; [3]): 0.05 ± 0.01 (M^−1) × 10^−5 | Kapp (ds17) (ds17 duplex DNA; non-competition dialysis (1 + ds17)): 0.06 ± 0.01 (M^−1) × 10^−5 | apparent association constant to dsDNA ds17 (ds17 duplex DNA; [4]): ~10^3 M^−1 and ~ 5 × 10^3 M^−1 | pIC50 (HT29 cells (colorectal)): < 4.00 | pIC50 ([2]; MTT, 72 h): 4.74 | selectivity index (SI), prostate tumor PC3 versus prostate non-tumor RWPE-1 [2]: 5 | selectivity index (SI), prostate tumor PC3 versus prostate non-tumor RWPE-1 ([2]; listed as neutral derivative): ~ 5
